Source: the supplement of paper PMC10307832

How the values were obtained:
Assay in all cases: relative viability (nuclei count vs DMSO), 5 days (fraction); higher = more cells survive
[1] = compound: C1=CC=C2C(=C1)N=C(S2)C(C#N)C3=NC(=NC=C3)NCCC4=CN=CC=C4 + CCNC(=O)c1noc(-c2cc(C(C)C)c(O)cc2O)c1-c1ccc(CN2CCOCC2)cc1 [Luminespib] (partner 0.01 µM)
How it was run: (§1)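 Relative viability equals treated-well nuclei counts divided by vehicle-well nuclei counts. Counts came from 4× images of lung cancer cell lines grown in 1536-well plates for 5 days after pin-tool dosing on the day after seeding. Dosing used one drug alone or a fixed anchor-drug dose plus five library-drug doses (not always all listed) in √10 steps, and values are medians of duplicate plates.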

[2] = compound: C1=CC=C2C(=C1)N=C(S2)C(C#N)C3=NC(=NC=C3)NCCC4=CN=CC=C4 + C[C@]1(O)C[C@@H](c2nc(-c3ccc4ccc(-c5ccccc5)nc4c3)c3c(N)nccn32)C1 [Linsitinib] (partner 1 µM)
How it was run: as §1

NVP-TAE684 + Lapatinib = compound: COc1cc(N2CCC(N3CCN(C)CC3)CC2)ccc1Nc1ncc(Cl)c(Nc2ccccc2S(=O)(=O)C(C)C)n1 [NVP-TAE684] + CS(=O)(=O)CCNCc1ccc(-c2ccc3ncnc(Nc4ccc(OCc5cccc(F)c5)c(Cl)c4)c3c2)o1 [Lapatinib] (partner 2 µM)
How it was run: as §1

Vandetanib + Phenformin = compound: COc1cc2/c(=N/c3ccc(Br)cc3F)nc[nH]c2cc1OCC1CCN(C)CC1 [Vandetanib] + N=C(N)NC(=N)NCCc1ccccc1 [Phenformin] (partner 250 µM)
How it was run: as §1

| Cell Line | relative viability ([1]; first compound 0.005 µM) | relative viability ([1]; first compound 0.01581 µM) | relative viability ([1]; first compound 0.05 µM) | relative viability ([1]; first compound 0.1581 µM) | relative viability ([1]; first compound 0.5 µM) | relative viability ([2]; first compound 0.005 µM) | relative viability ([2]; first compound 0.01581 µM) | relative viability ([2]; first compound 0.05 µM) | relative viability ([2]; first compound 0.1581 µM) | relative viability ([2]; first compound 0.5 µM) | relative viability (NVP-TAE684 + Lapatinib; first compound 0.2 µM) | relative viability (NVP-TAE684 + Lapatinib; first compound 0.6325 µM) | relative viability (NVP-TAE684 + Lapatinib; first compound 2 µM) | relative viability (Vandetanib + Phenformin; first compound 0.02 µM) | relative viability (Vandetanib + Phenformin; first compound 0.06325 µM) | relative viability (Vandetanib + Phenformin; first compound 0.2 µM) | relative viability (Vandetanib + Phenformin; first compound 0.6325 µM) | relative viability (Vandetanib + Phenformin; first compound 2 µM) |
| --- | --- | --- | --- | --- | --- | --- | --- | --- | --- | --- | --- | --- | --- | --- | --- | --- | --- | --- |
| NCI-H2228 | 0.146 | 0.117 | 0.153 | 0.163 | 0.142 | 0.792 | 0.762 | 0.629 | 0.734 | 0.634 | 0.458 | 0.212 | 0.321 | 0.263 | 0.281 | 0.384 | 0.294 | 0.303 |
| PC-14 | 0.197 | – | 0.117 | 0.119 | 0.155 | 0.914 | 1.07 | 0.972 | 1.08 | 0.896 | 0.336 | 0.305 | 0.245 | 0.576 | 0.478 | 0.215 | 0.235 | 0.125 |
| H3255 | 0.779 | 0.884 | 0.916 | 1.11 | 0.944 | 0.89 | 1.01 | 0.908 | 1.05 | 1.04 | 0.279 | 0.18 | 0.167 | 0.427 | 0.359 | 0.35 | 0.303 | 0.192 |
| LK-2 | 0.206 | 0.181 | 0.209 | 0.176 | 0.194 | 0.409 | 0.736 | 0.621 | 0.689 | 0.555 | 1.01 | 0.721 | 0.69 | 0.381 | 0.5 | 0.419 | 0.444 | 0.408 |
| SW 1573 | 0.317 | 0.292 | 0.221 | 0.275 | 0.193 | 0.725 | 0.776 | 0.792 | 0.895 | 0.745 | 1.16 | 1.12 | 1.13 | 0.357 | 0.382 | 0.397 | 0.347 | 0.351 |
| LU99A | 0.188 | 0.254 | 0.262 | 0.268 | 0.274 | 0.517 | 0.517 | 0.553 | 0.611 | 0.553 | – | 0.974 | 0.543 | 0.876 | 0.818 | 0.577 | 0.766 | 0.886 |
| NCI-H322M | 0.646 | 0.829 | 0.88 | 0.933 | 0.932 | 0.88 | 1.03 | 0.899 | 0.987 | 0.803 | 0.637 | 0.609 | 0.404 | 0.7 | 0.731 | 0.852 | 0.622 | 0.493 |
| COR-L23 | 0.404 | 0.825 | 0.727 | 1.06 | 0.614 | 0.483 | 1.14 | 1.01 | 1.06 | 0.682 | 0.661 | 0.898 | 0.538 | 0.485 | 0.442 | 0.428 | 0.452 | 0.464 |
| NCI-H1563 | 0.534 | 0.52 | 0.507 | 0.553 | 0.552 | 1.27 | 1.32 | 1.16 | 1.2 | 1.18 | 0.95 | 0.858 | 0.655 | 0.679 | 0.629 | 0.695 | 0.616 | 0.625 |
| NCI-H1793 | 0.16 | 0.141 | 0.182 | 0.158 | 0.22 | 0.782 | 0.956 | 0.886 | 1.25 | 0.87 | 0.925 | 0.499 | 0.611 | 0.371 | 0.355 | 0.328 | 0.299 | 0.292 |
| HARA | 0.527 | 0.802 | 0.452 | 0.666 | 0.675 | 0.731 | 0.937 | 0.934 | 1.12 | 0.788 | 1.09 | 0.626 | 0.232 | 0.471 | 0.447 | 0.44 | 0.381 | 0.351 |
| LXF-289 | 0.544 | 0.74 | 0.661 | 0.875 | 0.677 | 0.853 | 1.01 | 1.05 | 1.04 | 0.92 | 0.946 | – | 0.861 | 0.503 | 0.5 | 0.499 | 0.489 | 0.509 |
| 201T | 1.06 | 1.06 | 1.09 | 1.07 | 1.07 | 1.07 | 1.01 | 1.06 | 1.06 | 0.974 | 1.09 | 1.05 | 0.928 | 0.466 | 0.406 | 0.427 | 0.403 | 0.424 |
| NCI-H520 | 0.237 | 0.201 | 0.214 | 0.224 | 0.198 | 0.552 | 0.97 | 0.923 | 1.11 | 0.735 | 0.761 | 0.884 | 0.454 | 0.563 | 0.58 | 0.481 | 0.518 | 0.548 |
| RERF-LC-KJ | 0.935 | 0.982 | 1.4 | 1.18 | 1.06 | 1.01 | 0.877 | 0.853 | 0.861 | 0.781 | 0.871 | 0.867 | 0.905 | 0.436 | 0.379 | 0.37 | 0.375 | 0.335 |
| NCI-H1975 | – | 0.202 | 0.246 | 0.171 | 0.225 | 0.823 | 1.07 | 0.972 | 1.07 | 0.738 | 0.734 | 0.791 | 0.318 | 0.391 | 0.398 | 0.391 | 0.389 | 0.403 |
| PC-3 [JPC-3] | 0.681 | 0.71 | 0.693 | 0.724 | 0.561 | 0.898 | 0.983 | 0.957 | 0.942 | 0.965 | 0.472 | 0.446 | 0.387 | 0.471 | 0.466 | 0.496 | 0.334 | 0.331 |
| EPLC-272H | 0.248 | 0.229 | 0.169 | 0.392 | 0.302 | 1.01 | 1.3 | 1.12 | 1.27 | 1.12 | 0.813 | – | 0.955 | 0.326 | – | 0.294 | 0.273 | 0.301 |
